“And” between values parts separate entries of the source, which are not always exact repeats. Equal entries are not always repeated. Where two headings read alike, the source gives them in different places.
Key:
[1] = molecular target: human α1β GlyR (α1:β, α1wtβwt) (Homo sapiens, UniProt P23415+P48167); settings: for τdes: desensitization
[2] = molecular target: α1:α1-β-α1 FYF (α1: α1F207A-βY231A-α1F207A) GlyR (Homo sapiens, UniProt P23415+P48167, F235A/Y253A)
α1F207A:α1-β GlyR = α1F207A:α1-β GlyR (Homo sapiens, UniProt P23415+P48167, F235A)
Sequence of α1F207A:α1-β GlyR (P23415 29-457 F235A): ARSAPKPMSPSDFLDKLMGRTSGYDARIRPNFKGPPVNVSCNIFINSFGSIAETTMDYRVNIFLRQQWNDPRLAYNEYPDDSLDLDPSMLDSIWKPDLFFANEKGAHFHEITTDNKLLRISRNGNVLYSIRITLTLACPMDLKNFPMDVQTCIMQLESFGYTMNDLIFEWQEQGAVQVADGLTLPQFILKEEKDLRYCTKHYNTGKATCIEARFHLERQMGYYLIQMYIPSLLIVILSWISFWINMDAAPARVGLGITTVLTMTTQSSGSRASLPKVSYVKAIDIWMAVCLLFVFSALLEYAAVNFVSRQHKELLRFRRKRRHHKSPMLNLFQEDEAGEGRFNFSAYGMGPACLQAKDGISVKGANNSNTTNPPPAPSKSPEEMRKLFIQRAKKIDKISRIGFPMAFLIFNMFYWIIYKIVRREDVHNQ
Sequence of α1F207A:α1-β GlyR (P23415 29-457, stated change not applied): as the sequence (P23415 29-457 F235A) above, with A207F counted along it
Sequence of α1F207A:α1-β GlyR (P48167 23-497): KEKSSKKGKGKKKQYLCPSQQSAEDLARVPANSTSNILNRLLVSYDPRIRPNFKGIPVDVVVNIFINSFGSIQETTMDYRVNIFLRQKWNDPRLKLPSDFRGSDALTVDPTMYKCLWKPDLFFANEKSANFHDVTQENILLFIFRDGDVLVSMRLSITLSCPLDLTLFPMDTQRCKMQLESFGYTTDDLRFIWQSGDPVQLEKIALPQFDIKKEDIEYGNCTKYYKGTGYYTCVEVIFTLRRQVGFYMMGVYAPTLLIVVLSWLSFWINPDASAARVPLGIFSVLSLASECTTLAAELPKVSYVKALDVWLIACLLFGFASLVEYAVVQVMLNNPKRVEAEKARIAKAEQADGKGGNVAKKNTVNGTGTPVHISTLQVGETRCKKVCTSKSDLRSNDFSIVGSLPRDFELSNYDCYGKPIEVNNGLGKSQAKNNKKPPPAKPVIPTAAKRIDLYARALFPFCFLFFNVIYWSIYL
α1F207A:β GlyR = α1F207A:β GlyR (Homo sapiens, UniProt P23415+P48167, F235A)
Sequence of α1F207A:β GlyR (P23415 29-457 F235A): as the sequence (P23415 29-457 F235A) above
Sequence of α1F207A:β GlyR (P48167 23-497): as the sequence (P48167 23-497) above

α1sβsg GlyR = settings: for τdes: desensitization
[3] = molecular target: α1:α1-β-α1 RFYF (α1: α1R65DF207A-βY231A-α1F207A) GlyR (Homo sapiens, UniProt P23415+P48167, F235A/R93D/Y253A)
Sequence of α1:α1-β-α1 RFYF (α1: α1R65DF207A-βY231A-α1F207A) GlyR (P23415 29-457, stated change not applied): as the sequence (P23415 29-457 F235A) above, with A207F counted along it
Sequence of α1:α1-β-α1 RFYF (α1: α1R65DF207A-βY231A-α1F207A) GlyR (P23415 29-457 R93D/F235A): as the sequence (P23415 29-457 F235A) above, with R65D counted along it
Sequence of α1:α1-β-α1 RFYF (α1: α1R65DF207A-βY231A-α1F207A) GlyR (P48167 23-497 Y253A): as the sequence (P48167 23-497) above, with Y231A counted along it
Sequence of α1:α1-β-α1 RFYF (α1: α1R65DF207A-βY231A-α1F207A) GlyR (P23415 29-457 F235A): as the sequence (P23415 29-457 F235A) above

[4] = tested on: α1β GlyR with mutation of a single α-α or α-β site; settings: Supplementary Fig.S4
α1:βR86TY231A GlyR = α1:βR86TY231A GlyR (Homo sapiens, UniProt P23415+P48167, R108T/Y253A)
Sequence of α1:βR86TY231A GlyR (P23415 29-457): as the sequence (P23415 29-457 F235A) above, with A207F counted along it
Sequence of α1:βR86TY231A GlyR (P48167 23-497 R108T/Y253A): as the sequence (P48167 23-497) above, with R86T, Y231A counted along it
α1:βY231A GlyR = α1:βY231A GlyR (Homo sapiens, UniProt P23415+P48167, Y253A)
Sequence of α1:βY231A GlyR (P23415 29-457): as the sequence (P23415 29-457 F235A) above, with A207F counted along it
Sequence of α1:βY231A GlyR (P48167 23-497 Y253A): as the sequence (P48167 23-497) above, with Y231A counted along it
α1F207A:α1-β-α1 GlyR = α1F207A:α1-β-α1 GlyR (Homo sapiens, UniProt P23415+P48167, F235A)
Sequence of α1F207A:α1-β-α1 GlyR (P23415 29-457 F235A): as the sequence (P23415 29-457 F235A) above
Sequence of α1F207A:α1-β-α1 GlyR (P23415 29-457, stated change not applied): as the sequence (P23415 29-457 F235A) above, with A207F counted along it
Sequence of α1F207A:α1-β-α1 GlyR (P48167 23-497): as the sequence (P48167 23-497) above
Sequence of α1F207A:α1-β-α1 GlyR (P23415 29-457, stated change not applied): as the sequence (P23415 29-457 F235A) above, with A207F counted along it

[5] = glycine dose-response, Hill fit

Sequence of human α1β GlyR (α1:β, α1wtβwt) (P23415 29-457): as the sequence (P23415 29-457 F235A) above, with A207F counted along it
Sequence of human α1β GlyR (α1:β, α1wtβwt) (P48167 23-497): as the sequence (P48167 23-497) above
Sequence of α1:α1-β-α1 FYF (α1: α1F207A-βY231A-α1F207A) GlyR (P23415 29-457, stated change not applied): as the sequence (P23415 29-457 F235A) above, with A207F counted along it
Sequence of α1:α1-β-α1 FYF (α1: α1F207A-βY231A-α1F207A) GlyR (P23415 29-457 F235A): as the sequence (P23415 29-457 F235A) above
Sequence of α1:α1-β-α1 FYF (α1: α1F207A-βY231A-α1F207A) GlyR (P48167 23-497 Y253A): as the sequence (P48167 23-497) above, with Y231A counted along it
Sequence of α1:α1-β-α1 FYF (α1: α1F207A-βY231A-α1F207A) GlyR (P23415 29-457 F235A): as the sequence (P23415 29-457 F235A) above

SMILES: NCC(=O)O [glycine, Glycine]
- current remaining after desensitization ([1]; 40 μM glycine): ~ 66%
- τclose ([1]; 40 μM glycine): 0.3 ± 0.1 s
- τopen ([1]; 40 μM glycine): 0.6 ± 0.3 s
- τdes ([1]; 40 μM glycine): 4.8 ± 0.9 s
- τclose ([1]; 100 μM glycine): 0.3 ± 0.1 s
- τopen ([1]; 100 μM glycine): 0.18 ± 0.03 s
- τdes ([1]; 100 μM glycine): 7.5 ± 1.2 s
- τclose ([1]; 200 μM glycine): 1.1 ± 0.1 s
- τopen ([1]; 200 μM glycine): 0.07 ± 0.01 s
- τdes ([1]; 200 μM glycine): 7.8 ± 0.6 s
- current remaining after desensitization ([1]; 1 mM glycine): ~ 18%
- τclose ([1]; 1000 μM glycine): 1.0 ± 0.1 s
- τopen ([1]; 1000 μM glycine): 0.06 ± 0.01 s
- τdes ([1]; 1000 μM glycine): 6.5 ± 0.4 s
- increase in desensitization recovery time constant ([1]; 1 mM vs 40 μM glycine): ~ 7 fold
- increase in the extent of desensitization ([1]; 1 mM vs 40 μM glycine): ~ 4 fold
- current remaining after desensitization (residual activity) ([1]; 10 mM glycine): ~ 3%
- desensitization time constants ([1]; across glycine concentrations 40 μM to 10 mM): 5 to 8 s
- τclose ([1]; beyond 200 μM glycine): ~ 1.1 s
- nh (Hill coefficent) [1, 5]: 2.5 ± 0.4
- minimum τopen ([1]; increased glycine concentrations, likely limited by instrument): 60 ms
- Imax, maximum glycine-induced current amplitude ([1]; whole-cell, -70 mV): 7.0 ± 0.9 nA
- Imax, maximum glycine-induced current amplitude [2]: 4.5 ± 0.7 nA
- nh (Hill coefficent) [2, 5]: 2.2 ± 0.4
- Imax, maximum glycine-induced current amplitude (α1F207A:α1-β GlyR): 0.2 ± 0.1 nA
- nh (Hill coefficent) (α1F207A:α1-β GlyR; [5]): 1.0 ± 0.6
- Imax, maximum glycine-induced current amplitude (α1F207A:β GlyR): 0.8 ± 0.2 nA
- nh (Hill coefficent) (α1F207A:β GlyR; [5]): 1.4 ± 1.5
- I des / Imax (α1sβsg GlyR; 40 μM glycine): 0.74 ± 0.05
- τclose (α1sβsg GlyR; 40 μM glycine): 0.4 ± 0.1 s
- τopen (α1sβsg GlyR; 40 μM glycine): 0.9 ± 0.1 s
- τdes (α1sβsg GlyR; 40 μM glycine): 5.4 ± 1.2 s
- I des / Imax (α1sβsg GlyR; 100 μM glycine): 0.38 ± 0.05
- τclose (α1sβsg GlyR; 100 μM glycine): 0.5 ± 0.1 s
- τopen (α1sβsg GlyR; 100 μM glycine): 0.5 ± 0.1 s
- τdes (α1sβsg GlyR; 100 μM glycine): 7.0 ± 1.3 s
- I des / Imax (α1sβsg GlyR; 1000 μM glycine): 0.17 ± 0.03
- τclose (α1sβsg GlyR; 1000 μM glycine): 0.9 ± 0.3 s
- τopen (α1sβsg GlyR; 1000 μM glycine): 0.06 ± 0.01 s
- τdes (α1sβsg GlyR; 1000 μM glycine): 8.8 ± 1.8 s
- EC50 (α1sβsg GlyR; glycine response normalized to 1 mM glycine): ~100 µM
- Imax, maximum glycine-induced current amplitude [3]: 0.8 ± 0.3 nA
- nh (Hill coefficent) [3, 5]: 1.6 ± 2.0
- channel activation by glycine ([3]; only 1 intact glycine site): inactive
- desensitization forward rate constant kdes (α1β GlyR; model parameter): 0.18 ± 0.05 and 0.18
- desensitization reverse rate constant kdes_r (α1β GlyR; model parameter): 0.007 ± 0.002 and 0.007
- rate scaler after desensitization ndes (α1β GlyR; model parameter): 0.006 ± 0.007 and 0.006
- dissociation rate constants kdα = kdβ (α1β GlyR; model parameter matched to full recording traces): 10 ± 2
- EC50 [4]: ~140 µM
- Imax, maximum glycine-induced current amplitude (α1:βR86TY231A GlyR): 7.1 ± 0.5 nA
- nh (Hill coefficent) (α1:βR86TY231A GlyR; [5]): 2.1 ± 0.3
- Imax, maximum glycine-induced current amplitude (α1:βY231A GlyR): 5.0 ± 0.7 nA
- nh (Hill coefficent) (α1:βY231A GlyR; [5]): 3.1 ± 0.5
- Imax, maximum glycine-induced current amplitude (α1F207A:α1-β-α1 GlyR): 0.5 ± 0.1 nA
- nh (Hill coefficent) (α1F207A:α1-β-α1 GlyR; [5]): 1.8 ± 3.3
